The source of these data is patent US20210122730A1, “GLUCOCORTICOID RECEPTOR MODULATORS” (ORIC Pharmaceuticals, Inc., priority 2017, published 2021).

The test addresses T1, GR (Homo sapiens, UniProt P04150).
T1 construct: expressed in transfected cells; host or cells: CHO-K1
T1 sequence (P04150 1-777): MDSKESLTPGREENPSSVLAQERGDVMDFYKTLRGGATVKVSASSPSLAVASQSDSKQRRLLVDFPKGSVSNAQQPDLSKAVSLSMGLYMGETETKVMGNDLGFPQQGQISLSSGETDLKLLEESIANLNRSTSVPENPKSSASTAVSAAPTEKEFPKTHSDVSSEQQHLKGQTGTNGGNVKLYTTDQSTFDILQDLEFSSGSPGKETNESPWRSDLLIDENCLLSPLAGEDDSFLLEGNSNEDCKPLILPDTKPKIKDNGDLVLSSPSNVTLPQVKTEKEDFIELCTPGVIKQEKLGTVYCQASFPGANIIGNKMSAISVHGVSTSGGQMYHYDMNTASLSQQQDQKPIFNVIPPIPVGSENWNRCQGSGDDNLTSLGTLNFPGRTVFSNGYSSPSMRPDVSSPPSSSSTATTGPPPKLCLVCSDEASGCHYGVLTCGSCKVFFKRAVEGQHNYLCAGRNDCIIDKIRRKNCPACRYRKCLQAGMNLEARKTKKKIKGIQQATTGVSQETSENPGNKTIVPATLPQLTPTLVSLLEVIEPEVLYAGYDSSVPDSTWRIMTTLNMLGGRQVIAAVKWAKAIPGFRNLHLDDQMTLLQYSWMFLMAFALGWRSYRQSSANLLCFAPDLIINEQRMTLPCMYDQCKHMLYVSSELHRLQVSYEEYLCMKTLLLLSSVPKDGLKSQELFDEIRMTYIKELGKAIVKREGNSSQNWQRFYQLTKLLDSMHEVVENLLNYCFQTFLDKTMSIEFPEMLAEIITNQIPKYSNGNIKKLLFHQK
Description: In Vitro GR Luciferase Reporter Assay (antagonist mode, CHO-K1-GR-MMTV-Luc reporter cells). The note with it: antagonist mode, 10 nM Dexamethasone. In kind it is cell-based. The essentials:
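Antagonist mode: compounds (8 serial 1:5 dilutions) added to GR-MMTV-luciferase CHO-K1 reporter cells co-exposed to 10 nM dexamethasone final, in phenol red-free DMEM plus 10% CSS. After roughly 18-24 h at 37° C, OneGlo luminescence read and IC50 calculated.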
(In general: Reporter assays use an easily measured gene product as a stand-in for the process of interest.)
The IC50 is the concentration that gives 50% inhibition. Lower therefore signals inhibition by little substance. As for `Cn1cnc(S(=O)(=O)N(CCC#N)[C@H]2CCC3=Cc4c(cnn4-c4ccc(F)cc4)C[C@]3(C(=O)c3ncc(C(F)(F)F)s3)C2)n1` [Example 388, N-(2-cyanoethyl)-N-((4aS,6S)-1-(4-fluorophenyl)-4a-(5-(trifluoromethyl)thiazole-2-carbonyl)-4,4a,5,6,7,8-hexahydro-1H-benzo[f]indazol-6-yl)-1-methyl-1H-1,2,4-triazole-3-sulfonamide], the IC50 is at most 100 nM. For `O=C(c1cc(F)ccn1)[C@]12Cc3cnn(-c4ccc(F)cc4)c3C=C1CC[C@H](N(CCF)S(=O)(=O)c1ccc(F)cc1)C2` [Example 389, 4-fluoro-N-(2-fluoroethyl)-N-((4aS,6S)-1-(4-fluorophenyl)-4a-(4-fluoropicolinoyl)-4,4a,5,6,7,8-hexahydro-1H-benzo[f]indazol-6-yl)benzenesulfonamide] the value was at most 100 nM; for `O=C(c1cc(Cl)ccn1)[C@]12Cc3cnn(-c4ccc(F)cc4)c3C=C1CC[C@H](N(CCF)S(=O)(=O)c1ccc(F)cc1)C2` [Example 390, N-((4aS,6S)-4a-(4-chloropicolinoyl)-1-(4-fluorophenyl)-4,4a,5,6,7,8-hexahydro-1H-benzo[f]indazol-6-yl)-4-fluoro-N-(2-fluoroethyl)benzenesulfonamide], at most 100 nM. The result for `COCCOCCN([C@H]1CCC2=Cc3c(cnn3-c3ccc(F)cc3)C[C@]2(C(=O)c2ncc(C(F)(F)F)s2)C1)S(=O)(=O)c1ccc(F)cc1` [Example 391, 4-fluoro-N-((4aS,6S)-1-(4-fluorophenyl)-4a-(5-(trifluoromethyl)thiazole-2-carbonyl)-4,4a,5,6,7,8-hexahydro-1H-benzo[f]indazol-6-yl)-N-(2-(2-methoxyethoxy)ethyl)benzene-sulfonamide] reads at most 100 nM. Take `Cn1cnc(S(=O)(=O)N(CCF)[C@H]2CCC3=Cc4c(cnn4-c4ccc(F)cc4)C[C@]3(C(=O)c3cc(F)ccn3)C2)n1` [Example 392, N-(2-fluoroethyl)-N-((4aS,6S)-1-(4-fluorophenyl)-4a-(4-fluoropicolinoyl)-4,4a,5,6,7,8-hexahydro-1H-benzo[f]indazol-6-yl)-1-methyl-1H-1,2,4-triazole-3-sulfonamide]: the IC50 is at most 100 nM. For `Cn1cnc(S(=O)(=O)N(CCF)[C@H]2CCC3=Cc4c(cnn4-c4ccc(F)cc4)C[C@]3(C(=O)c3cc(Cl)ccn3)C2)n1` [Example 393, N-((4aS,6S)-4a-(4-chloropicolinoyl)-1-(4-fluorophenyl)-4,4a,5,6,7,8-hexahydro-1H-benzo[f]indazol-6-yl)-N-(2-fluoroethyl)-1-methyl-1H-1,2,4-triazole-3-sulfonamide] the value was at most 100 nM; for `Cn1cc(S(=O)(=O)N(CCF)[C@H]2CCC3=Cc4c(cnn4-c4ccc(F)cc4)C[C@]3(C(=O)c3ncc(C(F)(F)F)s3)C2)nn1` [Example 394, N-(2-fluoroethyl)-N-((4aS,6S)-1-(4-fluorophenyl)-4a-(5-(trifluoromethyl)thiazole-2-carbonyl)-4,4a,5,6,7,8-hexahydro-1H-benzo[f]indazol-6-yl)-1-methyl-1H-1,2,3-triazole-4-sulfonamide], at most 100 nM; for `Cn1cc(S(=O)(=O)N(CCF)[C@H]2CCC3=Cc4c(cnn4-c4ccc(F)cc4)C[C@]3(C(=O)c3cc(C(F)(F)F)ccn3)C2)nn1` [Example 395, N-(2-fluoroethyl)-N-((4aS,6S)-1-(4-fluorophenyl)-4a-(4-(trifluoromethyl)picolinoyl)-4,4a,5,6,7,8-hexahydro-1H-benzo[f]indazol-6-yl)-1-methyl-1H-1,2,3-triazole-4-sulfonamide], at most 100 nM. With `Cn1cc(S(=O)(=O)N(CCF)[C@H]2CCC3=Cc4c(cnn4-c4ccc(F)cc4)C[C@]3(C(=O)c3ncc(C(F)(F)F)s3)C2)cn1` [Example 396, N-(2-fluoroethyl)-N-((4aS,6S)-1-(4-fluorophenyl)-4a-(5-(trifluoromethyl)thiazole-2-carbonyl)-4,4a,5,6,7,8-hexahydro-1H-benzo[f]indazol-6-yl)-1-methyl-1H-pyrazole-4-sulfonamide], the IC50 is at most 100 nM.

The molecule `Cn1ccc(S(=O)(=O)N(CCF)[C@H]2CCC3=Cc4c(cnn4-c4ccc(F)cc4)C[C@]3(C(=O)c3cc(F)ccn3)C2)n1` [Example 397, N-(2-fluoroethyl)-N-((4aS,6S)-1-(4-fluorophenyl)-4a-(4-fluoropicolinoyl)-4,4a,5,6,7,8-hexahydro-1H-benzo[f]indazol-6-yl)-1-methyl-1H-pyrazole-3-sulfonamide] showed an IC50 of at most 100 nM.

Molecule `COCCN([C@H]1CCC2=Cc3c(cnn3-c3ccc(F)cc3)C[C@]2(C(=O)c2ncc(C(F)(F)F)s2)C1)S(=O)(=O)c1ncn(C)n1` [Example 398, N-((4aS,6S)-1-(4-fluorophenyl)-4a-(5-(trifluoromethyl)thiazole-2-carbonyl)-4,4a,5,6,7,8-hexahydro-1H-benzo[f]indazol-6-yl)-N-(2-methoxyethyl)-1-methyl-1H-1,2,4-triazole-3-sulfonamide] came in with an IC50 of at most 100 nM. The result for `Cn1ccc(S(=O)(=O)N(C2CC2)[C@H]2CCC3=Cc4c(cnn4-c4ccc(F)nc4)C[C@]3(C(=O)c3ncc(C(F)(F)F)s3)C2)n1` [Example 399, N-cyclopropyl-N-((4aS,6S)-1-(6-fluoropyridin-3-yl)-4a-(5-(trifluoromethyl)thiazole-2-carbonyl)-4,4a,5,6,7,8-hexahydro-1H-benzo[f]indazol-6-yl)-1-methyl-1H-pyrazole-3-sulfonamide] reads at most 100 nM; that for `Cn1ccc(S(=O)(=O)N(CC(=O)OC(C)(C)C)[C@H]2CCC3=Cc4c(cnn4-c4ccc(F)cc4)C[C@]3(C(=O)c3cc(C(F)(F)F)ccn3)C2)n1` [Example 400, tert-butyl N-((4aS,6S)-1-(4-fluorophenyl)-4a-(4-(trifluoromethyl)picolinoyl)-4,4a,5,6,7,8-hexahydro-1H-benzo[f]indazol-6-yl)-N-((1-methyl-1H-pyrazol-3-yl)sulfonyl)glycinate], at most 100 nM. For `Cn1ccc(S(=O)(=O)N(CC(=O)O)[C@H]2CCC3=Cc4c(cnn4-c4ccc(F)cc4)C[C@]3(C(=O)c3cc(C(F)(F)F)ccn3)C2)n1` [Example 401, N-((4aS,6S)-1-(4-fluorophenyl)-4a-(4-(trifluoromethyl)picolinoyl)-4,4a,5,6,7,8-hexahydro-1H-benzo[f]indazol-6-yl)-N-((1-methyl-1H-pyrazol-3-yl)sulfonyl)glycine] the value was 100 to 1000 nM; for `Cn1ccc(S(=O)(=O)N(C2CC2)[C@H]2CCC3=Cc4c(cnn4-c4ccc(F)nc4)C[C@]3(C(=O)c3cc(C(F)(F)F)ccn3)C2)n1` [Example 402, N-cyclopropyl-N-((4aS,6S)-1-(6-fluoropyridin-3-yl)-4a-(4-(trifluoromethyl)picolinoyl)-4,4a,5,6,7,8-hexahydro-1H-benzo[f]indazol-6-yl)-1-methyl-1H-pyrazole-3-sulfonamide], at most 100 nM. For `Cn1ccc(S(=O)(=O)N(CCF)[C@H]2CCC3=Cc4c(cnn4-c4ccc(F)cc4)C[C@]3(C(=O)c3cc(Cl)ccn3)C2)n1` [Example 403, N-((4aS,6S)-4a-(4-chloropicolinoyl)-1-(4-fluorophenyl)-4,4a,5,6,7,8-hexahydro-1H-benzo[f]indazol-6-yl)-N-(2-fluoroethyl)-1-methyl-1H-pyrazole-3-sulfonamide] the value was at most 100 nM; for `COCCOCCN([C@H]1CCC2=Cc3c(cnn3-c3ccc(F)cc3)C[C@]2(C(=O)c2cc(C(F)(F)F)ccn2)C1)S(=O)(=O)c1ccc(F)cc1` [Example 404, 4-fluoro-N-((4aS,6S)-1-(4-fluorophenyl)-4a-(4-(trifluoromethyl)picolinoyl)-4,4a,5,6,7,8-hexahydro-1H-benzo[f]indazol-6-yl)-N-(2-(2-methoxyethoxy)ethyl)benzene-sulfonamide], at most 100 nM.

`O=C(c1ncc(C(F)(F)F)s1)[C@]12Cc3cnn(-c4ccc(F)cc4)c3C=C1CC[C@H](N(CC(F)F)S(=O)(=O)c1ccc(F)cc1)C2` [Example 405, N-(2,2-difluoroethyl)-4-fluoro-N-((4aS,6S)-1-(4-fluorophenyl)-4a-(5-(trifluoromethyl)thiazole-2-carbonyl)-4,4a,5,6,7,8-hexahydro-1H-benzo[f]indazol-6-yl)benzenesulfonamide] returned an IC50 of at most 100 nM. For `Cn1cc(S(=O)(=O)N(C2CC(F)(F)C2)[C@H]2CCC3=Cc4c(cnn4-c4ccc(F)cc4)C[C@]3(C(=O)c3ncc(C(F)(F)F)s3)C2)cn1` [Example 406, N-(3,3-difluorocyclobutyl)-N-((4aS,6S)-1-(4-fluorophenyl)-4a-(5-(trifluoromethyl)thiazole-2-carbonyl)-4,4a,5,6,7,8-hexahydro-1H-benzo[f]indazol-6-yl)-1-methyl-1H-pyrazole-4-sulfonamide], the IC50 was at most 100 nM.
